Columns and labels:
MGC-803 [1] = assay: Antiproliferative activity against human MGC803 cells at 2 uM after 72 hrs by CCK-8 assay relative to control; assay type: functional; details: MGC-803, 72 h
A-375 [2] = assay: Antiproliferative activity against human A375 cells at 2 uM after 72 hrs by CCK-8 assay relative to control; assay type: functional; details: A-375, 72 h
HeLa [3] = assay: Antiproliferative activity against human HeLa cells at 8 uM after 72 hrs by CCK-8 assay relative to control; assay type: functional
MGC-803 [4] = assay: Antiproliferative activity against human MGC803 cells at 8 uM after 72 hrs by CCK-8 assay relative to control; assay type: functional; details: MGC-803, 72 h
HeLa [5] = assay: Antiproliferative activity against human HeLa cells at 2 uM after 72 hrs by CCK-8 assay relative to control; assay type: functional
A-375 [6] = assay: Antiproliferative activity against human A375 cells at 8 uM after 72 hrs by CCK-8 assay relative to control; assay type: functional; details: A-375, 72 h
A-375 [7] = assay: Antiproliferative activity against human A375 cells after 72 hrs by CCK-8 assay; assay type: functional, cell-based; details: A-375, 72 h
MGC-803 [8] = assay: Antiproliferative activity against human MGC803 cells after 72 hrs by CCK-8 assay; assay type: functional, cell-based; details: MGC-803, 72 h
NCI-H1299 = assay: Antiproliferative activity against human NCI-H1299 cells after 72 hrs by CCK-8 assay; assay type: functional, cell-based; details: NCI-H1299, 72 h
HCT-116 = assay: Antiproliferative activity against human HCT116 cells after 72 hrs by CCK-8 assay; assay type: functional, cell-based; details: HCT-116, 72 h
SMMC-7721 = assay: Antiproliferative activity against human SMMC7721 cells after 72 hrs by CCK-8 assay; assay type: functional, cell-based; details: SMMC-7721, 72 h
HeLa [9] = assay: Antiproliferative activity against human HeLa cells after 72 hrs by CCK-8 assay; assay type: functional, cell-based

| Compound | inhibition at 2 µM (MGC-803 [1]) [%] | inhibition at 2 µM (A-375 [2]) [%] | inhibition at 8 µM (HeLa [3]) [%] | inhibition at 8 µM (MGC-803 [4]) [%] | inhibition at 2 µM (HeLa [5]) [%] | inhibition at 8 µM (A-375 [6]) [%] | IC50 (A-375 [7]) [µM] | IC50 (MGC-803 [8]) [µM] | IC50 (NCI-H1299) [µM] | IC50 (HCT-116) [µM] | IC50 (SMMC-7721) [µM] | IC50 (HeLa [9]) [µM] |
| --- | --- | --- | --- | --- | --- | --- | --- | --- | --- | --- | --- | --- |
| N#Cc1ccc(N2CCN(C(=S)SCc3ccc(C(=O)Nc4ccccc4N)cc3)CC2)cc1 | 34.5 | 41.4 | 70.6 | 37.6 | 71.6 | 62.9 |  |  |  |  |  |  |
| CN(C(=S)SCc1ccc(C(=O)Nc2ccccc2N)cc1)c1cccnc1 | 46.1 | 26.5 | 70.5 | 82.5 | 16 | 87.7 |  |  |  |  |  |  |
| Nc1ccccc1NC(=O)c1ccc(CSC(=S)N2CCCC2)cc1 | 27 | 30.2 | 77.8 | 83.4 | 51.3 | 89.5 |  |  |  |  |  |  |
| Nc1ccccc1NC(=O)c1ccc(CSC(=S)N2CCc3cc(Cl)ccc32)cc1 | 57.7 | 31.9 | 65.1 | 82.2 | 40.1 | 82.3 | 5.28 | 1.89 | 3.28 | 3.21 | 1.88 |  |
| CN(Cc1cccnc1)C(=S)SCc1ccc(C(=O)Nc2ccccc2N)cc1 | 45.9 | 39.4 | 68.7 | 85.5 | 16.4 | 83.8 |  |  |  |  |  |  |
| Nc1ccccc1NC(=O)c1ccc(CSC(=S)N2CCN(c3cnccn3)CC2)cc1 | 27.1 | 29.1 | 76.9 | 80.5 | 70.4 | 85.8 |  |  |  |  |  |  |
| Nc1ccccc1NC(=O)c1ccc(CSC(=S)N2CCN(c3ncccn3)CC2)cc1 | 28.4 | 24 | 73.9 | 64.8 | 52.2 | 67.9 |  |  |  |  |  |  |
| Nc1ccccc1NC(=O)c1ccc(CSC(=S)N2CCN(Cc3ccccc3)CC2)cc1 | 18.1 | 10.6 | 31.3 | 19.7 | 20.6 | 29.3 |  |  |  |  |  |  |
| CN(Cc1ccncc1)C(=S)SCc1ccc(C(=O)Nc2ccccc2N)cc1 | 38.1 | 31.4 | 72.7 | 83.2 | 29.5 | 86.1 |  |  |  |  |  |  |
| CN1CCN(C(=S)SCc2ccc(C(=O)Nc3ccccc3N)cc2)CC1 | 29.6 | 36.6 | 75.7 | 84.4 | 52.6 | 91.6 |  |  |  |  |  |  |
| Nc1ccccc1NC(=O)c1ccc(CSC(=S)N2CCN(Cc3cccnc3)CC2)cc1 | 37.7 | 31.5 | 78 | 64.6 | 69.7 | 89.2 |  |  |  |  |  |  |
| Nc1ccccc1NC(=O)c1ccc(CSC(=S)N2CCN(C(c3ccccc3)c3ccccc3)CC2)cc1 | 9.8 | 8.7 | 13.8 | 9.9 | 8 | 8.4 |  |  |  |  |  |  |
| COc1ccc(N2CCN(C(=S)SCc3ccc(C(=O)Nc4ccccc4N)cc3)CC2)cc1 | 25.3 | 28.1 | 52.3 | 22.9 | 39.4 | 35.9 |  |  |  |  |  |  |
| Nc1ccccc1NC(=O)c1ccc(CSC(=S)N2CCCc3ccccc32)cc1 | 38.5 | 26.5 | 35.7 | 87.5 | 26.1 | 81.5 |  |  |  |  |  |  |
| Nc1ccccc1NC(=O)c1ccc(CSC(=S)N2CCc3ccc([N+](=O)[O-])cc32)cc1 | 30.6 | 22.1 | 62.1 | 39.6 | 45.7 | 42 |  |  |  |  |  |  |
| Nc1ccccc1NC(=O)c1ccc(CSC(=S)N2CCN(c3ccc(Cl)cc3)CC2)cc1 | 15 | 32.2 | 44.8 | 17.2 | 51.2 | 29 |  |  |  |  |  |  |
| Cc1ccc(N2CCN(C(=S)SCc3ccc(C(=O)Nc4ccccc4N)cc3)CC2)cc1 | 33.4 | 25.8 | 24 | 19.8 | 25.3 | 26.4 |  |  |  |  |  |  |
| Nc1ccccc1NC(=O)c1ccc(CSC(=S)N2CCN(c3ccccc3F)CC2)cc1 | 33.7 | 18.7 | 59.2 | 86.4 | 17.5 | 79.5 |  |  |  |  |  |  |
| CC1CCN(C(=S)SCc2ccc(C(=O)Nc3ccccc3N)cc2)CC1 | 28.1 | 32.7 | 72.5 | 81.9 | 46.8 | 87.4 |  |  |  |  |  |  |
| CC(=O)Nc1ccc(C(=O)Nc2ccccc2N)cc1 [TACEDINALINE] | 9.5 | 13.4 | 24.3 | 22.4 | 7.3 | 33.5 | 11.3 |  | 33.8 |  |  | 18 |
| Nc1ccccc1NC(=O)c1ccc(CSC(=S)N2CCN(c3cccnc3)CC2)cc1 | 27.6 | 40.5 | 72.5 | 76.9 | 66.2 | 88.8 |  |  |  |  |  |  |
| Nc1ccccc1NC(=O)c1ccc(CSC(=S)N2CCN(CCc3ccccc3)CC2)cc1 | 24.8 | 26.1 | 37 | 53.8 | 21.9 | 76.6 |  |  |  |  |  |  |
| Nc1ccccc1NC(=O)c1ccc(CSC(=S)N(Cc2ccccc2)Cc2ccccc2)cc1 | 11 | 10.9 | 18.9 | 30.7 | 1 | 32.5 |  |  |  |  |  |  |
| Nc1ccccc1NC(=O)c1ccc(CSC(=S)N2CCN(C3CCCCC3)CC2)cc1 | 16.9 | 31.7 | 76.1 | 75.3 | 30.6 | 89.9 |  |  |  |  |  |  |
| Nc1ccccc1NC(=O)c1ccc(CSC(=S)N2CCN(Cc3ccncc3)CC2)cc1 | 18.4 | 33.1 | 72.9 | 79.3 | 59.5 | 89.5 |  |  |  |  |  |  |
| Nc1ccccc1NC(=O)c1ccc(CSC(=S)N2CCc3cc([N+](=O)[O-])ccc32)cc1 | 26.8 | 16.9 | 43.6 | 33.2 | 32.6 | 29.5 |  |  |  |  |  |  |
| Nc1ccccc1NC(=O)c1ccc(CSC(=S)N2CCN(Cc3ccccn3)CC2)cc1 | 23.4 | 20.7 | 61.4 | 65.2 | 14.2 | 82.4 |  |  |  |  |  |  |
